Tests used:
Sprague-Dawley (SD) rats = assay: Acute toxicity test, single dose, mortality; type: in vivo, rat; design: unit not given here
Description: The present derivatives and citalopram were individually administered orally and intra-venously to SD rats at a single dose.

[1] = tested on: Salmonella typhimurium TA98, 100, 1535, 1537, E. coli WP2 uvrA; conditions: reported 'in the same test'; which test is not specified; cited from earlier work
[2] = Determination of half-lives of the compounds in rats (oral, plasma HPLC); type: in vivo; conditions: rat, male Sprague-Dawley rats, 10 mg/kg (text also says 5 mg/kg), 0.5% methylcellulose
Method: The half-lives of present compounds were determined as follows. Each compound was administered orally to male Sprague-Dawley rats weighing approximately 270 g at a dose of 10 mg/kg. 5 mg/kg of each compound was suspended in 0.5% methyl-cellulose and then administered to rats. Blood samples were collected 0.017, 0.083, 0.25, 0.5, 1, 2, 3, 5, 7 and 24 hours after administration, and centrifuged at 1,000 rpm for 3 min to separate plasma. The concentration of each compound in plasma was determined using high performance liquid chromatography, which was performed with a mobile phase of 10 mM ammonium formate (pH 3.0) and acetonitrile (50:50), an […] column (21×100 mm, 3 μm) and a flow rate of 0.2 ml/min.

Male Wistar rats = assay: p-PCA-induced ejaculation in anesthetized rats (ejaculation-delaying effect); type: in vivo, rat; conditions: for Ratio: Number of responding animals/total animal number: 50 mg/kg oral in 1% HPMC, p-PCA 5 mg/kg i.p. 80 min later, observed 30 min; for Latency: Time to display the ejaculatory response: 50 mg/kg oral, p-PCA 5 mg/kg i.p., mean ± standard deviation of responding rats
Summary of the method: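 Male Wistar rats (240-260 g) received compound orally at 50 mg/kg in 1% HPMC, were anesthetized 60 min later, and 20 min after that were given p-PCA 5 mg/kg i.p. to induce ejaculation. Scored as rhythmic bulbocavernosus contraction plus semen discharge, with six or more animals per compound versus vehicle.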

5HT1A receptor = target: T1, 5HT1A receptor (Homo sapiens, UniProt P08908); assay: Radioligand competitive binding assay; conditions: human-derived recombinant CHO cells
T1 construct: expressed in transfected cells; host or cells: CHO cells
T1 sequence (P08908 1-422): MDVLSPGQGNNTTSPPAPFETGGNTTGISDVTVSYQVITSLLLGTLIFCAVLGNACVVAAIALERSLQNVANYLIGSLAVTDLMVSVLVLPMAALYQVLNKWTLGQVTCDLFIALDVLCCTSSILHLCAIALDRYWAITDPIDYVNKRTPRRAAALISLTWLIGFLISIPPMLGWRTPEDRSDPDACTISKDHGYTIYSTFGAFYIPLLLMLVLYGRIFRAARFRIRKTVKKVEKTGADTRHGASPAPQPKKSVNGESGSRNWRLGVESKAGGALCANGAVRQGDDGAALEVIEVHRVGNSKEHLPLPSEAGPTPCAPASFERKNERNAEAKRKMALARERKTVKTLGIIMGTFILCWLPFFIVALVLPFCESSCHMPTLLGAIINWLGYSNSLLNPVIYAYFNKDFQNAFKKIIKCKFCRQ
Method: (§1) In addition, ligand binding to 5HT1A, 5-HT1B and 5-HT2C receptors and 5-HT transporter was evaluated with human-derived recombinant CHO cells, Wistar rat-derived cerebral cortical cells, human-derived recombinant CHO-K1 cells, and human-derived recombinant HEK-293 cells. Each cell line was dosed with 10^−5 μM to 10^4 μM of the compounds of Examples 2, 35, 40 and 45, and then incubated with a radio-labeled ligand for competitive binding. Ligands used were […], [^125I]Cyanopindolol, [^3H]Mesulergine and [^3H]Paroxetine, respectively. The competitive binding assay was carried out in 50 mM Tris-HCl buffer at 25° C. or 37° C., for 60 to 90 min.

[3] = tested on: cellular uptake of norepinephrine; assay: Cellular reuptake assay, [3H]norepinephrine; type: cell-based; conditions: 10 min, MDCK cell line
Method: (§2) First, the effects of the present compounds on cellular uptake of dopamine, norepinephrine and serotonin were evaluated with human-derived CHO-1, MDCK and HEK-293 cell lines. Each cell line was dosed with 10^−5 μM to 10^4 μM of the compounds of Examples 2, 35, 40 and 45, and then incubated with [^3H]dopamine, [^3H]norepinephrine and [^3H]serotonin in buffer. After 10 min, the amount of each neurotransmitter taken up into cells was determined by counting radioactivity using a liquid scintillation counter (LSC).

5-HT transporter = target: T2, 5-HT transporter (Homo sapiens, UniProt P31645); assay: Radioligand competitive binding assay, [3H]Paroxetine; conditions: human-derived recombinant HEK-293 cells
T2 construct: expressed in transfected cells; host or cells: HEK-293 cells
T2 sequence (P31645 whole entry): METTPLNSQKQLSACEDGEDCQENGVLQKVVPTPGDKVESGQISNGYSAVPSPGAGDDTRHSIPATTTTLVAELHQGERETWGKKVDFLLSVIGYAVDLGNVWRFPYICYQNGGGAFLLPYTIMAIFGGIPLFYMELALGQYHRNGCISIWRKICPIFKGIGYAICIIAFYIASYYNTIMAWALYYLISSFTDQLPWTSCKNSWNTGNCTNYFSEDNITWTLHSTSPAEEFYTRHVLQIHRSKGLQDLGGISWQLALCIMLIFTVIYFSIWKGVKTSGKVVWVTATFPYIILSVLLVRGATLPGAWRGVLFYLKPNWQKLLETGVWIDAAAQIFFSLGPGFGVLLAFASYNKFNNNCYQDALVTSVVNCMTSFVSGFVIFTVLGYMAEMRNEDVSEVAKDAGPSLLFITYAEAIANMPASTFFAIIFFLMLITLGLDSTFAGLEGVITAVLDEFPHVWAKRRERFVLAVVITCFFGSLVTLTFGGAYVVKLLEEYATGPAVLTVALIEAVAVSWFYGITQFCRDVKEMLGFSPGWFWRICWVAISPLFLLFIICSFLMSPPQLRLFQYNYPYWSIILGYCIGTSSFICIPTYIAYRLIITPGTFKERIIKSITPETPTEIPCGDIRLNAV
Method: as §1

[4] = tested on: cellular uptake of dopamine; assay: Cellular reuptake assay, [3H]dopamine; type: cell-based; conditions: 10 min, CHO-1 cell line
Method: as §2

5-HT1B receptor = target: T3, 5-HT1B receptor (Rattus norvegicus, UniProt P28564); assay: Radioligand competitive binding assay, [125I]Cyanopindolol; conditions: Wistar rat-derived cerebral cortical cells
T3 construct: Wistar rat-derived cerebral cortical cells; from tissue; host or cells: Wistar rat cerebral cortex
T3 sequence (P28564 whole entry): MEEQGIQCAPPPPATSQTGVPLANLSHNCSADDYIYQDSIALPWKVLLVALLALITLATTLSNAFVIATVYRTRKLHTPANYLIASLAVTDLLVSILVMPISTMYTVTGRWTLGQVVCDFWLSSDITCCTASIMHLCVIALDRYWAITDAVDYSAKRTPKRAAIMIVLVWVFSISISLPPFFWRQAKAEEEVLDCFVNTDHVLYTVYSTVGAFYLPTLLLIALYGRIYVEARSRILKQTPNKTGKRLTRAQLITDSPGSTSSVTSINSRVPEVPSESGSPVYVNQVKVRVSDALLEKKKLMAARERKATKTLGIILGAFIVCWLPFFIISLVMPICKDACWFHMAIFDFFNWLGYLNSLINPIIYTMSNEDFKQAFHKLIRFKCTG
Method: as §1

5-HT2C receptor = target: T4, 5-HT2C receptor (Homo sapiens, UniProt P28335); assay: Radioligand competitive binding assay, [3H]Mesulergine; conditions: human-derived recombinant CHO-K1 cells
T4 construct: expressed in transfected cells; host or cells: CHO-K1 cells
T4 sequence (P28335 33-458): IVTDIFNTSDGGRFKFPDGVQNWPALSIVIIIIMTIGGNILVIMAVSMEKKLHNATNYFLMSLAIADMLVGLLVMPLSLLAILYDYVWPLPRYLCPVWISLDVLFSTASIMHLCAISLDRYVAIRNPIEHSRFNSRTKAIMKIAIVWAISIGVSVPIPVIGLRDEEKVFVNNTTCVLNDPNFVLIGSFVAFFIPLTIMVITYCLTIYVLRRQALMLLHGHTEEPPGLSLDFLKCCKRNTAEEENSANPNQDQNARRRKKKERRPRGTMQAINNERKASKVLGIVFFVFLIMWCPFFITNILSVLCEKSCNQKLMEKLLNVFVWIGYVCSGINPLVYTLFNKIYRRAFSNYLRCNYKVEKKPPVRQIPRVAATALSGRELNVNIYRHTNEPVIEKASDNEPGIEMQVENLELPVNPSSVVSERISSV
Method: as §1

[5] = tested on: cellular uptake of serotonin; assay: Cellular reuptake assay, [3H]serotonin; type: cell-based; conditions: Homo sapiens, HEK293, 10 min, HEK-293 cell line
Method: as §2

[6] = tested on: Salmonella typhimurium TA98, 100, 1535, 1537, E. coli WP2 uvrA; assay: Mutagenicity test: Ames test; type: cell-based; conditions: 8, 40, 200, 1000, 2500, 5000 μg/plate, presence/absence of a metabolic activation system
Method: (§3) To evaluate the safety of the present derivatives, mutagenicity test was conducted. Ames test and chromosome aberration test were conducted with the examples 2, 35, 40 and 45.

[7] = tested on: CHL (Chinese Hamster Lung) cell; assay: Mutagenicity test: chromosome aberration test; type: cell-based; conditions: 75, 150, 300 μg/ml with metabolic activation; 20, 40, 80 μg/ml without
Method: as §3

[8] = target: hERG (human Ether-a-go-go Related Gene) (Homo sapiens, UniProt Q12809); assay: Cardiotoxicity test, hERG assay (MDS Pharma)
Chain of hERG (human Ether-a-go-go Related Gene) (Q12809 whole entry): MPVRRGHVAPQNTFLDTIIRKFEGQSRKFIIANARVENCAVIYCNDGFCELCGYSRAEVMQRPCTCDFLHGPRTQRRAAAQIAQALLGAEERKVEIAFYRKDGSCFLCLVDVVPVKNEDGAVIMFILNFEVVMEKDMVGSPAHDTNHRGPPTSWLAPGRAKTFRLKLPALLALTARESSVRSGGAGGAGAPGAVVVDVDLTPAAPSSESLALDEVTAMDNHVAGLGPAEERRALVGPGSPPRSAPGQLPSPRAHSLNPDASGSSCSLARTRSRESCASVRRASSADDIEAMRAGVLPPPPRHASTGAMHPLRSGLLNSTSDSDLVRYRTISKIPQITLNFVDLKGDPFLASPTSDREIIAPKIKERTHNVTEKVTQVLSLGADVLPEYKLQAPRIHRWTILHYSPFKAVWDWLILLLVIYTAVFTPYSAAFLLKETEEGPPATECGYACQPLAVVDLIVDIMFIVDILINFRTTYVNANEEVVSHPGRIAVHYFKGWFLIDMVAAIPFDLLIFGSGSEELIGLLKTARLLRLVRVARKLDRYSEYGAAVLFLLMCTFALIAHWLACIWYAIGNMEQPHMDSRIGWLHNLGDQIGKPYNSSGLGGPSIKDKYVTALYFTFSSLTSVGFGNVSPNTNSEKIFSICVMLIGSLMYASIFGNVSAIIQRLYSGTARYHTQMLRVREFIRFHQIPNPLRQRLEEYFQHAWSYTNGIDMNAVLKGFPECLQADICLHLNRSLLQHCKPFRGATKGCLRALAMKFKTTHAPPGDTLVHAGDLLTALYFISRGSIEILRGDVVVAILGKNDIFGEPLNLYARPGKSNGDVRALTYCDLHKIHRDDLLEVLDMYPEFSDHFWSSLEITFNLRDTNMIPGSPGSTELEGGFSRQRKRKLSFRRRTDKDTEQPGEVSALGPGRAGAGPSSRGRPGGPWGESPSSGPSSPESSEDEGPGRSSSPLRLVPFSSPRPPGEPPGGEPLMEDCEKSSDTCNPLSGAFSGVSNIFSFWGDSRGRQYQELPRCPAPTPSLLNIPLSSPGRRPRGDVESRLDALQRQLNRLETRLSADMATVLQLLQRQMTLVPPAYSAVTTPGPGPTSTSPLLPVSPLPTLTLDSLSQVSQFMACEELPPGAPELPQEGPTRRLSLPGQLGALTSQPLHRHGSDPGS
Description: To evaluate the safety of the present derivatives in comparison with control drug, conducted was hERG (human Ether-a-go-go Related Gene) assay which is a representative test of safety medical test. This test was requested to trial institute MDS Pharma., which conducted this test.

SMILES	minimum lethal dose (Sprague-Dawley (SD) rats; Intravenously, female SD rats)	minimum lethal dose (Sprague-Dawley (SD) rats; Intravenously, male SD rats)	minimum lethal dose (Sprague-Dawley (SD) rats; Orally, female SD rats)	minimum lethal dose (Sprague-Dawley (SD) rats; Orally, male SD rats)	mutagenicity test result as reported [1]	Tmax [2] [min]	half-life [2] [min]	Ratio: Number of responding animals/total animal number (Male Wistar rats)	IC50 (5HT1A receptor) [µM]	IC50 [3] [µM]	IC50 (5-HT transporter) [µM]	IC50 [4] [µM]	IC50 (5-HT1B receptor) [µM]	IC50 (5-HT2C receptor) [µM]	IC50 [5] [µM]	Ames test result [6]	chromosome aberration test result [7]	IC50 [8] [µM]	Latency: Time to display the ejaculatory response (Male Wistar rats) [s]
CN(C)CCCC1(c2ccc(F)cc2)OCc2cc(C#N)ccc21 (stereo not drawn) [Citalopram, reference compound]	30	30	650	650	positive	19.8	194												
CN(C)CCCC1(c2ccc(N(C)C)cc2)OCc2cc(C#N)ccc21.O=C(O)C(=O)O (stereo not drawn) [Ex. 35, 1-(4-dimethylaminophenyl)-1-{3-(dimethylamino)propyl}-1,3-dihydro-5-isobenzofurancarbonitrile oxalate]	50	50	1000	1000		15	211	0/9	1120	53.2	0.001	100	> 1000	898	0.425	negative	negative	12.2	
CN(C)CCCC1(c2cccs2)OCc2cc(C#N)ccc21.O=C(O)C(=O)O (stereo not drawn) [Ex. 40, 1-{3-(dimethylamino)propyl}-1-(2-thienyl)-1,3-dihydro-5-isobenzofurancarbonitrile oxalate]	50	50	800	800		15	75.6	3/9	967	69.1	0.0125	124	> 1000	10.1	0.531	negative	negative	8.7	876 ± 110
N#Cc1ccc2c(c1)COC2(CCCn1ccnc1)c1cccs1.O=C(O)C(=O)O (stereo not drawn) [Ex. 45, 1-{3-(imidazole-1-yl)propyl}-1-(2-thienyl)-1,3-dihydro-5-isobenzofurancarbonitrile oxalate]	50	50	1000	1000		15	63.6	2/9	898	67.3	0.0087	94.2	> 1000	8.88	0.465	negative	negative	10.6	676 ± 10
